The text below walks through data of ChEMBL document CHEMBL1148070, “Cytotoxic saponins from New Zealand Myrsine species” (1994).

≈ marks a conversion by molar mass, not a printed value. Calls of active or inactive are those of the source. No cut-off for these calls is given here.

The subject of test [1] is Poliovirus 1. Nature of the test: Antiviral activity against Human poliovirus 1 assessed as inhibition of virus-induced cytopathic effect 40 ug/disk. The format is functional, organism-based.
For test [2], the system named is Human alphaherpesvirus 1. Description: Antiviral activity against HSV1 assessed as inhibition of virus-induced cytopathic effect 40 ug/disk. It counts as functional, organism-based. In general terms: Damage to the host cells serves as the signal in cytopathic effect assays.
The test system of test [3] is P388. Description: Cytotoxicity against mouse P388 cells. The format is functional. The note with it: read-out: ID50 (the source's name).

`CC1(C)CC[C@]23CO[C@@]4(CC[C@@H]5[C@@]6(C)CC[C@H](O[C@@H]7OC[C@H](O[C@@H]8O[C@H](CO)[C@@H](O)[C@H](O)[C@H]8O[C@@H]8OC[C@@H](O)[C@H](O)[C@H]8O)[C@H](O)[C@H]7O[C@@H]7O[C@H](CO)[C@@H](O)[C@H](O)[C@H]7O)C(C)(C)[C@@H]6CC[C@@]5(C)[C@]4(C)C[C@H]2O)[C@@H]3C1` [LYSIKOKIANOSIDE 1]: the inhibition result in test [1] and in test [2] was “Active” each time. The IC50 in test [3] came out at 0.85 µg/mL (≈ 0.812 µM).
With `C[C@@H]1O[C@@H](O[C@H]2[C@H](O[C@H]3CO[C@@H](O[C@H]4CC[C@]5(C)[C@H]6CC[C@]78OC(=O)[C@@]9(CCC(C)(C)C[C@H]97)[C@H](O)C[C@@]8(C)[C@]6(C)CC[C@H]5C4(C)C)[C@H](O[C@@H]4O[C@H](CO)[C@@H](O)[C@H](O)[C@H]4O)[C@H]3O)O[C@H](CO)[C@@H](O)[C@@H]2O)[C@H](O)[C@H](O)[C@H]1O`, the inhibition entry in test [1] and in test [2] was “Active” each time. In test [3], the IC50 came out at 10.2 µg/mL (≈ 9.49 µM).
Regarding `CC1(C)CC[C@]23C(=O)O[C@@]4(CC[C@@H]5[C@@]6(C)CC[C@H](O[C@@H]7OC[C@H](O[C@@H]8O[C@H](CO)[C@@H](O)[C@H](O)[C@H]8O[C@@H]8OC[C@@H](O)[C@H](O)[C@H]8O)[C@H](O)[C@H]7O[C@@H]7O[C@H](CO)[C@@H](O)[C@H](O)[C@H]7O)C(C)(C)[C@@H]6CC[C@@]5(C)[C@]4(C)C[C@H]2O)[C@@H]3C1`, the inhibition entry in test [1] and in test [2] was “Active” throughout. Moreover, the IC50 in test [3] was more than 12.5 µg/mL.
Consider `CC1(C)[C@@H](O[C@@H]2OC[C@H](O[C@@H]3O[C@H](CO)[C@@H](O)[C@H](O)[C@H]3O[C@@H]3OC[C@@H](O)[C@H](O)[C@H]3O)[C@H](O)[C@H]2O[C@@H]2O[C@H](CO)[C@@H](O)[C@H](O)[C@H]2O)CC[C@]2(C)[C@H]3CC[C@]45OC[C@@]6(CC[C@](C)(C=O)C[C@H]64)[C@H](O)C[C@@]5(C)[C@]3(C)CC[C@@H]12` [ARDISIACRISPIN A], for which the inhibition result in test [1] and in test [2] was “Active” in each case. Moreover, the IC50 in test [3] stood at 7 µg/mL (≈ 6.6 µM).
In the case of `C[C@@H]1O[C@@H](O[C@H]2[C@H](O[C@H]3CO[C@@H](O[C@H]4CC[C@]5(C)[C@H]6CC[C@]78OC[C@@]9(CCC(C)(C)C[C@H]97)[C@H](O)C[C@@]8(C)[C@]6(C)CC[C@H]5C4(C)C)[C@H](O[C@@H]4O[C@H](CO)[C@@H](O)[C@H](O)[C@H]4O)[C@H]3O)O[C@H](CO)[C@@H](O)[C@@H]2O)[C@H](O)[C@H](O)[C@H]1O`, the inhibition result in test [1] and in test [2] was “Active” throughout. Besides, the IC50 in test [3] is 0.85 µg/mL (≈ 0.801 µM).
As for `C[C@@H]1O[C@@H](O[C@H]2[C@H](O[C@H]3CO[C@@H](O[C@H]4CC[C@]5(C)[C@H]6CC[C@]78OC[C@@]9(CC[C@](C)(C=O)C[C@H]97)[C@H](O)C[C@@]8(C)[C@]6(C)CC[C@H]5C4(C)C)[C@H](O[C@@H]4O[C@H](CO)[C@@H](O)[C@H](O)[C@H]4O)[C@H]3O)O[C@H](CO)[C@@H](O)[C@@H]2O)[C@H](O)[C@H](O)[C@H]1O` [ARDISIACRISPIN B], the inhibition entry in test [1] and in test [2] was “Active” in each case. The IC50 in test [3] amounted to 8.6 µg/mL (≈ 8 µM).
On to `C[C@@H]1O[C@@H](O[C@H]2[C@H](O[C@H]3CO[C@@H](O[C@H]4CC[C@]5(C)[C@H]6CC[C@]78OC(O)[C@@]9(CCC(C)(C)C[C@H]97)[C@H](O)C[C@@]8(C)[C@]6(C)CC[C@H]5C4(C)C)[C@H](O[C@@H]4O[C@H](CO)[C@@H](O)[C@H](O)[C@H]4O)[C@H]3O)O[C@H](CO)[C@@H](O)[C@@H]2O)[C@H](O)[C@H](O)[C@H]1O` (some centres undefined), for which the inhibition result in test [1] and in test [2] was “Active” each time. Further, the IC50 in test [3] was more than 12.5 µg/mL.
For `CC1(C)CC[C@]23C(O)O[C@@]4(CC[C@@H]5[C@@]6(C)CC[C@H](O[C@@H]7OC[C@H](O[C@@H]8O[C@H](CO)[C@@H](O)[C@H](O)[C@H]8O[C@@H]8OC[C@@H](O)[C@H](O)[C@H]8O)[C@H](O)[C@H]7O[C@@H]7O[C@H](CO)[C@@H](O)[C@H](O)[C@H]7O)C(C)(C)[C@@H]6CC[C@@]5(C)[C@]4(C)C[C@H]2O)[C@@H]3C1` (some centres undefined), the inhibition entry in test [1] and in test [2] was “Active” throughout. Further, the IC50 in test [3] was found to be 7 µg/mL (≈ 6.58 µM).
